Test results published in the supplement of paper PMC10011410.
± gives the standard deviation of the averaged measurements.

Legend:
[1] = tested on: U-2 OS; test: relative cell count vs DMSO (cell painting) (fraction of DMSO control); higher = more cells remaining (less cytotoxic); conditions: 24 h
Summary of the method: (§1)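 Cell painting used U-2 OS cells at about 1,500 per well in 384-well plates, treated by pin tool for 24 h at 37 °C, usually at six 2-fold concentrations from 20 μM to 625 nM. Cells were stained with MitoTracker, concanavalin A, phalloidin, wheat germ agglutinin, Hoechst and SYTO 14 and imaged on an Opera Phenix. Features were extracted with CellProfiler and normalized to DMSO cells on the same plate. The activity score is the Mahalanobis distance from DMSO wells; cell count is relative to DMSO wells. Values are means of four replicate plates.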

[2] = tested on: U-2 OS; test: cell painting activity score (Mahalanobis distance from DMSO wells); higher = stronger morphological phenotype; conditions: 24 h
Summary of the method: as §1

[3] = tested on: U-2 OS; test: AUC of culture confluence over time (live-cell imaging) (AUC (confluence % x time)); higher = more confluent culture (less growth inhibition)
Summary of the method: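 Confluence of U-2 OS cells in F-12K medium with 10% FBS was tracked by live-cell imaging. Cells were seeded at 750 per well in 384-well plates and treated 24 h later by pin tool, with most compounds at 20, 10 and 5 μM and 0.2% DMSO. Cells were kept at 37 °C and imaged every 4 h for up to 60 h on an Incucyte S3 with a 10x objective. The value is the area under the confluence-versus-time curve.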

[4] = tested on: U-2 OS; test: total intracellular glutathione (GSH + GSSG) relative to DMSO (% of control); higher = more glutathione; conditions: 24 h
Protocol: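 Total intracellular glutathione (GSH + GSSG) in U-2 OS cells by GSH/GSSG-Glo after 24 h compound treatment at 5, 10 and 20 uM (some at 40 and 80 uM), as percent of DMSO control. Five technical replicate plates, averaged.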

[5] = tested on: U-2 OS; test: cell viability (CellTiter-Glo) relative to DMSO (% of control); higher = more viable; conditions: 24 h
Protocol: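 Cell viability of U-2 OS cells by CellTiter-Glo after 24 h compound treatment at 5, 10 and 20 uM (some at 40 and 80 uM), measured in parallel with the glutathione assay, as percent of DMSO control. Five technical replicate plates, averaged.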

[6] = tested on: U-2 OS; test: intracellular GSH:GSSG ratio (calculated); higher = more reduced glutathione pool; conditions: 24 h
Protocol: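 Intracellular glutathione in U-2 OS cells after 24 h compound treatment at 5, 10 and 20 uM (some at 40 and 80 uM). Total glutathione and GSSG were measured with the GSH/GSSG-Glo kit, and the GSH:GSSG ratio was calculated. Mean of five technical replicate plates.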

With `Oc1cccc(O)c1O` the relative cell count ([1]; 0.625 µM) was 0.96, the relative cell count ([1]; 1.25 µM) was 0.998 and the relative cell count ([1]; 2.5 µM) was 0.978. For the same molecule, the relative cell count ([1]; 5 µM) was 1.02, the relative cell count ([1]; 10 µM) was 0.974 and the relative cell count ([1]; 20 µM) was 0.973. For the same molecule, the “cell painting activity score” value ([2]; 0.625 µM) was 3.4, the “cell painting activity score” value ([2]; 1.25 µM) was 4.83 and the “cell painting activity score” value ([2]; 2.5 µM) was 3.93. The “cell painting activity score” value ([2]; 5 µM) was 3.87, the “cell painting activity score” value ([2]; 10 µM) was 5.49 and the “cell painting activity score” value ([2]; 20 µM) was 5.54. For the same molecule, the “AUC of culture confluence over time” value ([3]; 5 µM) was 46.4, the “AUC of culture confluence over time” value ([3]; 10 µM) was 48 and the “AUC of culture confluence over time” value ([3]; 20 µM) was 38.4. The total intracellular glutathione ([4]; 5 µM) was 82.6 ± 6.4, the total intracellular glutathione ([4]; 10 µM) was 48.8 ± 13 and the total intracellular glutathione ([4]; 20 µM) was 3.4 ± 0.69. It also gave a total intracellular glutathione ([4]; 40 µM) of 2.67 ± 0.16, a total intracellular glutathione ([4]; 80 µM) of 2.53 ± 0.23 and a cell viability ([5]; 5 µM) of 82.2 ± 6.1. The cell viability ([5]; 10 µM) was 35.7 ± 10, the cell viability ([5]; 20 µM) was 0.451 ± 0.23 and the cell viability ([5]; 40 µM) was 0.221 ± 0.03. For the same molecule, the cell viability ([5]; 80 µM) was 0.263 ± 0.059, the “intracellular GSH:GSSG ratio” value ([6]; 5 µM) was 22.7 and the “intracellular GSH:GSSG ratio” value ([6]; 10 µM) was 8.34. The “intracellular GSH:GSSG ratio” value ([6]; 20 µM) was 5.48 and the “intracellular GSH:GSSG ratio” value ([6]; 40 µM) was 1.66.

In the case of `O=S1(=O)CC(N2CCCC2)c2ccccc21` (stereo not given), the relative cell count ([1]; 0.15624 µM) is reported as 0.962, the relative cell count ([1]; 0.3124 µM) is reported as 0.979 and the relative cell count ([1]; 0.625 µM) is reported as 0.972. The relative cell count ([1]; 1.25 µM) was 0.969, the relative cell count ([1]; 2.5 µM) was 0.957 and the relative cell count ([1]; 5 µM) was 0.962. The “cell painting activity score” value ([2]; 0.15624 µM) was 4.13, the “cell painting activity score” value ([2]; 0.3124 µM) was 3.66 and the “cell painting activity score” value ([2]; 0.625 µM) was 5.04. For the same molecule, the “cell painting activity score” value ([2]; 1.25 µM) was 4.39, the “cell painting activity score” value ([2]; 2.5 µM) was 4.11 and the “cell painting activity score” value ([2]; 5 µM) was 3.43. The “AUC of culture confluence over time” value ([3]; 5 µM) was 49.4, the total intracellular glutathione ([4]; 5 µM) was 97.6 ± 3.1 and the total intracellular glutathione ([4]; 10 µM) was 98.8 ± 6.1. For the same molecule, the total intracellular glutathione ([4]; 20 µM) was 102 ± 5.3, the cell viability ([5]; 5 µM) was 103 ± 3.5 and the cell viability ([5]; 10 µM) was 103 ± 6.5. For the same molecule, the cell viability ([5]; 20 µM) was 109 ± 6.8, the “intracellular GSH:GSSG ratio” value ([6]; 5 µM) was 30.8 and the “intracellular GSH:GSSG ratio” value ([6]; 10 µM) was 37.7. For the same molecule, the “intracellular GSH:GSSG ratio” value ([6]; 20 µM) was 28.5.

`CCCCCC[C@H]1C(=O)O[C@H](C)[C@H](NC(=O)c2cccc(NC=O)c2O)C(=O)O[C@@H](C)[C@@H]1OC(=O)CC(C)C` showed a relative cell count ([1]; 0.625 µM) of 0.8, a relative cell count ([1]; 1.25 µM) of 0.81 and a relative cell count ([1]; 2.5 µM) of 0.802. The relative cell count ([1]; 5 µM) was 0.8, the relative cell count ([1]; 10 µM) was 0.783 and the relative cell count ([1]; 20 µM) was 0.831. For the same molecule, the “cell painting activity score” value ([2]; 0.625 µM) was 12.7, the “cell painting activity score” value ([2]; 1.25 µM) was 13.2 and the “cell painting activity score” value ([2]; 2.5 µM) was 12.9. For the same molecule, the “cell painting activity score” value ([2]; 5 µM) was 12.9, the “cell painting activity score” value ([2]; 10 µM) was 12.8 and the “cell painting activity score” value ([2]; 20 µM) was 12.2. For the same molecule, the “AUC of culture confluence over time” value ([3]; 5 µM) was 38, the “AUC of culture confluence over time” value ([3]; 10 µM) was 38 and the “AUC of culture confluence over time” value ([3]; 20 µM) was 38.3. For the same molecule, the total intracellular glutathione ([4]; 5 µM) was 65.6 ± 6.7, the total intracellular glutathione ([4]; 10 µM) was 69.4 ± 4 and the total intracellular glutathione ([4]; 20 µM) was 66.1 ± 3. It also gave a cell viability ([5]; 5 µM) of 54.1 ± 5.4, a cell viability ([5]; 10 µM) of 59.2 ± 1.6 and a cell viability ([5]; 20 µM) of 56.2 ± 3.1. For the same molecule, the “intracellular GSH:GSSG ratio” value ([6]; 5 µM) was 21.6, the “intracellular GSH:GSSG ratio” value ([6]; 10 µM) was 23.5 and the “intracellular GSH:GSSG ratio” value ([6]; 20 µM) was 22.4.
